Experimental data taken from patent US9119821B2, “Use of methionine sulfoximine to treat acute liver failure and other diseases caused by an inflammatory cytokine response” (priority 2010, dated 2015).
Like-named read-outs stand apart in the source and are kept apart here.

Experiments:
[1] = test system: 40 different mouse cytokines
Method: (§1) Tissue and plasma were collected from male mice, which were divided into two groups. One group was injected with saline three hours prior to LPS/D-GalN injections. The second group was given MSO three hours prior to being injected with LPS/D-GalN. Control mice (t=0) were treated with MSO or saline for 3 hours and then euthanized (not exposed to LPS/D-GalN). After LPS/D-GalN injection at time zero, tissue and plasma samples were collected at one-hour time intervals from 1 to 5 hours.
For experiments analyzing plasma cytokines, the male mice from the groups described above were anesthetized using Avertin (solution of 15.5 mis of tert-amyl alcohol—Sigma #240486 and 25 g of 2-2-2 tribromoethanol—Sigma #T48402) and blood was collected by cardiac puncture. Plasma was obtained by transferring blood to plasma separator tubes containing lithium heparin (BD Microtainer tubes). Plasma samples were immediately frozen on dry ice and stored at −80° C.
Mouse cytokine array kits (Proteome Profiler Arrays—cat #ARY006) were obtained from R&D Systems and used according to the manufacturer's guidelines. Each array, which consisted of a nitrocellulose membrane spotted with 40 different mouse cytokines, was tested with two hundred microliters of plasma from one animal. Each condition was duplicated—two mice for each group. Control blots were from plasma collected from two untreated mice (not injected with LPS/D-GalN and/or MSO). For untreated and MSO-treated groups, plasma was collected at either 1 hour or 3 hours after LPS/D-GalN administration. The blots were developed using the Immun-Star WesternC Kit (BIO-RAD cat #170-5070) on a BIO-RAD imager. The corresponding Quantity One software of the BIO-RAD imager was used to quantify the signal obtained on the blots.

peritoneal macrophages = settings: for TNF-α in culture supernatant, average ELISA value: four hours after LPS, LPS control 527
Method: Peritoneal macrophages were isolated from the abdomens of CD-1 mice, and 2×10^4 cells were added to each well of a 6-well cell culture plate. The cells were incubated in RPMI—1640 (with 2.05 mM glutamine) with 5% fetal calf serum and 1% penicillin/streptomycin (all solutions were from Hyclone) for 4 hours. The medium was then changed to remove any non-adherent cells, and the cells were again incubated in a 5% CO2 incubator for 16 hours. In each plate, one well was a negative control (no treatment), one well was a MSO control (9 mM) and one well was a LPS control (1 μg/ml LPS). The other three wells were treated with 9 mM MSO and 1 μg/ml LPS. One well was treated with MSO for 3 hours, and LPS was then added. In another well, LPS and MSO were added at the same time. Time of LPS addition was considered time zero. Four hours after LPS addition the cell culture medium was collected and 50 μL of the medium was mixed with 50 μl of blocking buffer and used for the TNF-α ELISA assay.
Macrophages coordinate the early phases of LPS-induced inflammatory response, through the synthesis of TNF-α and other cytokines. In vitro experiments were conducted to directly test if MSO inhibits TNF-α production on LPS-stimulated macrophages obtained from mouse peritoneum. Macrophages were triggered with LPS with or without MSO, wherein the MSO was added either three hours before, one hour after, or at the same time as LPS. Four hours after LPS addition, TNF-α in the culture supernatant was quantitated by ELISA, as described in Methods.

[2] = target: γ-glutamylcysteine synthetase (GGCS) (Mus musculus, UniProt P97494); settings: liver extracts from LPS/D-GalN treated mice; 50 mg/kg; data not shown
Method: as §1
To analyze enzyme activities liver homogenates were prepared from liver tissue excised and immediately homogenized in ice-cold buffer consisting of 250 mM sucrose, 10 mM Tris and 0.1 mM EGTA with protease inhibitor cocktail (Sigma #P8340). The homogenized tissue was centrifuged at 2375×g for 5 min. […]
Glutamine synthetase was assayed as described by Meister, A. Glutamine synthetase from mammalian tissues. […] The reaction with the substrates glutamine and hydroxylamine was stopped using ferric chloride stop solution (0.37 M FeCl3, 0.67 M HCl, 0.20 M TCA) and the colorimetric product formed—γ-glutamyl hydroxamate—was measured at 535 nm. The absorbance values were converted to activities by comparison to a standard curve of pure glutamyl hydroxamate (a generous gift from Arthur J. Cooper, Department of Biochemistry and Molecular Biology, New York Medical College).

[3] = one hour after LPS/D-GalN, versus LPS/D-GalN alone
[4] = three hours after LPS/D-GalN, same reduction in LPS/D-GalN animals without MSO

Sequence of γ-glutamylcysteine synthetase (GGCS) (P97494 whole entry): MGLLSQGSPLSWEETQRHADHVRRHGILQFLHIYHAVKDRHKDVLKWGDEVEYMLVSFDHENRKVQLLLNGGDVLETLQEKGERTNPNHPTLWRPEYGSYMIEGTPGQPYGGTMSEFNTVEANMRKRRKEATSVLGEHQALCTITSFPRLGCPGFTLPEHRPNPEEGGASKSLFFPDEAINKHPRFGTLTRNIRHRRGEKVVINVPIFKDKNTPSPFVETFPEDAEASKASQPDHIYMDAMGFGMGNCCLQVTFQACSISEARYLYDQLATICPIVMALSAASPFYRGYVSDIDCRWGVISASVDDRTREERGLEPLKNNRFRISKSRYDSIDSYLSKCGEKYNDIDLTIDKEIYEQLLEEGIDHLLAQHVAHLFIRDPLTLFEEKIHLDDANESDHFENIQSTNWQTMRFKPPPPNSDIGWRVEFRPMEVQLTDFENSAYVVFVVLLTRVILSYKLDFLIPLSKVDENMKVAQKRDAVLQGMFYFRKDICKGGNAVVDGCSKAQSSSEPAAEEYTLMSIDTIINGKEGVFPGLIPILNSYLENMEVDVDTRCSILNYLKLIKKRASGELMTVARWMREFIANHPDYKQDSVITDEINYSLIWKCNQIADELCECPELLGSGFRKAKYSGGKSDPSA
Sequence of γ-glutamylcysteine synthetase (GGCS) (O09172 whole entry partner): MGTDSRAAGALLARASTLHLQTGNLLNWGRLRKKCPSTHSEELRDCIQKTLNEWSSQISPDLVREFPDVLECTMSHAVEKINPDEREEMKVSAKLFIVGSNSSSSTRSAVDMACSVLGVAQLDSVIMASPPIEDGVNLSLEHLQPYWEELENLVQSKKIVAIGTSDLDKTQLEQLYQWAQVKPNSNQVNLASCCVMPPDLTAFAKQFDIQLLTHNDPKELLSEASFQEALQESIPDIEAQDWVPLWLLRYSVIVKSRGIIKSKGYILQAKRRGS

How did the “reduction of IL-6 in plasma” value [1, 3] turn out when `CS(=N)(=O)CC[C@H](N)C(=O)O` (some centres unmarked) [MSO, methionine sulfoximine] was run?
The value was over 50%.

And the “reduction of TNF-α in plasma” value [1, 3]?
The value was over 50%.

And the I-TAC in plasma ([1]; three hours after LPS/D-GalN)?
The I-TAC in plasma was “not detected”.

And the JE in plasma ([1]; three hours after LPS/D-GalN)?
The JE in plasma was “either reduced or not detected”.

And the KC values ([1]; three hours after LPS/D-GalN)?
The KC values was “same as in LPS/D-GalN animals”.

And the M-CSF values ([1]; three hours after LPS/D-GalN)?
Its M-CSF values is “same for all three groups”.

What about the MCP-5 in plasma ([1]; three hours after LPS/D-GalN) of the same compound?
Its MCP-5 in plasma is “increased”.

And the MIG in plasma ([1]; three hours after LPS/D-GalN)?
The MIG in plasma was “not detected”.

What about the MIP-1a in plasma ([1]; three hours after LPS/D-GalN) of the same compound?
The MIP-1a in plasma was “either reduced or not detected”.

And the MIP-1b in plasma ([1]; three hours after LPS/D-GalN)?
The MIP-1b in plasma was “either reduced or not detected”.

And the MIP-2 in plasma ([1]; three hours after LPS/D-GalN)?
Its MIP-2 in plasma is “increased”.

What about the RANTES in plasma ([1]; three hours after LPS/D-GalN) of the same compound?
Its RANTES in plasma is “either reduced or not detected”.

And the TIMP-1 values ([1]; three hours after LPS/D-GalN)?
Its TIMP-1 values is “reduced to approximately control values”.

What about the “TNF-α induction by LPS/D-GalN” value ([1]; three hours after LPS/D-GalN) of the same compound?
The value was “abrogated”.

And the “induction of IFN-γ by LPS/D-GalN” value ([1]; three hours after LPS/D-GalN)?
The value was “abolished”.

What about the “induction of IL-1ra by LPS/D-GalN” value ([1]; three hours after LPS/D-GalN) of the same compound?
Its value is “abolished”.

What about the “induction of IL-6 by LPS/D-GalN” value ([1]; three hours after LPS/D-GalN) of the same compound?
Its value is “abolished”.

And the “induction of IL-16 by LPS/D-GalN” value ([1]; three hours after LPS/D-GalN)?
The value was “abolished”.

What about the “induction of IL-23 by LPS/D-GalN” value ([1]; three hours after LPS/D-GalN) of the same compound?
Its value is “abolished”.

What about the “reduction of IL-1a level” value ([1]; three hours after LPS/D-GalN) of the same compound?
Its value is “more than 50%”.

What about the “reduction of IP-10” value ([1]; three hours after LPS/D-GalN) of the same compound?
The value was “more than 50%”.

What about the “number of elevated cytokines reduced by pretreatment” value ([1]; three hours after LPS/D-GalN, 22 of the 40 cytokines elevated) of the same compound?
The value was 20.

What about the “reduction in C5a” value [1, 4] of the same compound?
The value was 10-20%.

And the “reduction in sICAM” value [1, 4]?
Its value is 10-20%.

What about the “TNF-α in culture supernatant, average ELISA value” (shortened to “TNF-α in culture supernatant”) (peritoneal macrophages; 9 mM MSO added at the same time as LPS (1 μg/ml)) of the same compound?
Its value is 442 pg/50 μL.

And the “TNF-α in culture supernatant” value (peritoneal macrophages; 9 mM MSO added one hour after LPS (1 μg/ml))?
The value was 430 pg/50 μL.

And the “TNF-α in culture supernatant” value (peritoneal macrophages; 9 mM MSO added three hours before LPS (1 μg/ml), 2 mM glutamine)?
Its value is 393 pg/50 μL.

And the “average reductions in TNF-α” value (peritoneal macrophages; 9 mM MSO, depending upon the time of addition)?
The value was 16-25%.

And the “GGCS activity versus saline pre-treated mice” value [2]?
Its value is “same GGCS activities as extracts from mice pre-treated with saline”.
